In ChEMBL document CHEMBL3045757, “Common binding requirements of PPAR-// pan agonists: quantitative structureactivity relationship analysis of indanylacetic acid derivatives carrying 4-thiazolyl-phenoxy tail group” (Med Chem Res, 2012):

Target: T1, Peroxisome proliferator-activated receptor gamma (Homo sapiens, UniProt P37231)
T1 sequence (P37231 whole entry): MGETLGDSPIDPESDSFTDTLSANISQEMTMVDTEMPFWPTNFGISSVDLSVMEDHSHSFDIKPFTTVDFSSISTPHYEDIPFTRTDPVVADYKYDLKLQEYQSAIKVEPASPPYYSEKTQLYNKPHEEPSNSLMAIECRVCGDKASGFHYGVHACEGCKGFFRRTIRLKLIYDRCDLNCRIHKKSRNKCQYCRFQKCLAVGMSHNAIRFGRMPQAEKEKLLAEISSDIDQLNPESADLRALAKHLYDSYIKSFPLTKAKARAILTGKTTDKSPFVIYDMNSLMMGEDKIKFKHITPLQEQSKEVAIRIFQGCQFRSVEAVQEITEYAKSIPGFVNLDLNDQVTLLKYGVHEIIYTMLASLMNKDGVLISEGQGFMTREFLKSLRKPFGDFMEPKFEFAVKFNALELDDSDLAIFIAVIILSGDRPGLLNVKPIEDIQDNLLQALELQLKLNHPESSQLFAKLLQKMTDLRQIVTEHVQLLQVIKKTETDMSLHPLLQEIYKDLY
Assay: Agonist activity at Homo sapiens (human) PPARgamma expressed in mouse 3T3-L1 cells incubated for 2 days followed by compound wash out measured after 4 days by insulin receptor binding assay
Format: cell-based

EC50: 178 nM
SMILES: CCOc1nc(-c2ccc(OCCCOc3ccc4c(c3)CC[C@H]4CC(=O)O)c(OC)c2)sc1CC
